The source of these data is BindingDB's records for doi:10.1021/acs.jmedchem.7b01449 (University of Antwerp, 2018).

A short description of experiment [1]: Inhibition of RIPK1 in mouse L929sA cells transfected with human Fas assessed as inhibition in TNF-induced necroptosis pretreated for 0.5 hrs followed by TNF and zVAD.fmk addition measured after 3 hrs by Hoechst 33342/propidium iodide staining-based assay.
Experiment [2] is described as follows: Inhibition of RIPK1 in mouse L929sA cells transfected with human Fas assessed as inhibition in TNF-induced necroptosis pretreated for 24 hrs followed by TNF and zVAD.fmk addition measured after 3 hrs by Hoechst 33342/propidium iodide staining-based assay.
Experiment in experiment [3]: as above
The source holds these as a separate data set.

Experiment [4] can be described thus: Inhibition of RIPK1 in mouse L929sA cells transfected with human Fas assessed as inhibition in TNF-induced necroptosis pretreated for 0.5 hrs followed by TNF and zVAD.fmk addition measured after 3 hrs by Hoechst 33342/propidium iodide staining-based assay. This is another data set of the same source.
For experiment [5], the target named is T1, Receptor-interacting serine/threonine-protein kinase 1 (Mus musculus, UniProt Q60855).
T1 sequence (Q60855 whole entry): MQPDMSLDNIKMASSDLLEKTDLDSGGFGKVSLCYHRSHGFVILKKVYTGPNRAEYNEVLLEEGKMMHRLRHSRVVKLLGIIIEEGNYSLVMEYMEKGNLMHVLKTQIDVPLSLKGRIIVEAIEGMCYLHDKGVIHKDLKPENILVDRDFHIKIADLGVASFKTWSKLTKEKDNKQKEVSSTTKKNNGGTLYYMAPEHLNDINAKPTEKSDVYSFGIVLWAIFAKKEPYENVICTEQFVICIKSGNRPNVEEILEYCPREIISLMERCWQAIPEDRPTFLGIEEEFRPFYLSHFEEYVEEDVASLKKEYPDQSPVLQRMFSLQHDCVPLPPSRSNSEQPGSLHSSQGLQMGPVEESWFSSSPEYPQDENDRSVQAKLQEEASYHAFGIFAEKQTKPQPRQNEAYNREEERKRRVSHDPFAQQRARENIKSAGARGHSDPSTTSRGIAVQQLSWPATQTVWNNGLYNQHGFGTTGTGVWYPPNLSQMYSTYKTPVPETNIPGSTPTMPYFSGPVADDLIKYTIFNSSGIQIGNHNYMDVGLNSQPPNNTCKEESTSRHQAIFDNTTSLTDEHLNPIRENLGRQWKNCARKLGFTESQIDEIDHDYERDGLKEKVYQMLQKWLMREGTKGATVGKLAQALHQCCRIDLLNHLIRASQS
As to the kind of experiment: (§1) Inhibition of RIPK1 in mouse L929sA cells transfected with human Fas assessed as inhibition in TNF-induced necroptosis pretreated for 24 hrs followed by TNF and zVAD.fmk addition measured after 3 hrs by Hoechst 33342/propidium iodide staining-based assay.

The target of experiment [6] is T1, Receptor-interacting serine/threonine-protein kinase 1. As to the kind of experiment: ChEBML_1697666.
Excerpt: as §1

SMILES strings stand for the structures. Some results are limits rather than exact numbers.

The term IC50 denotes the concentration that inhibits the measured activity by half. In the case of `Cc1cc(Nc2cc(N3CCCCC3)nc(Nc3ccc(NC(=O)C4CC4)cc3)n2)n[nH]1`, the 50% inhibitory concentration (IC50) in experiment [1] was determined as 530 nM; in experiment [2], 680 nM.
For the compound `Cc1cc(Nc2nc(Sc3ccc(NC(=O)C4CCCCC4)cc3)nc(N3CCN(C)CC3)n2)n[nH]1`, the IC50 in experiment [1] and in experiment [3] was greater than 3000 nM each time.
Regarding `Cc1cc(Nc2cc(N3CCN(C)CC3)nc(Nc3ccc(NC(=O)C4CC4)cc3)n2)n[nH]1`, the half-inhibitory concentration (IC50) in experiment [4] stood at 1040 nM; in experiment [2], 640 nM.
With `Cc1cc(Nc2cc(N3CCN(C)CC3)nc(Sc3ccc(NC(=O)C4CCCCC4)cc3)n2)n[nH]1`, the IC50 in experiment [5] was greater than 3000 nM.
`Cc1cc(Nc2cc(N3CCOCC3)nc(Sc3ccc(NC(=O)C4CCCCC4)cc3)n2)n[nH]1`: the 50% inhibitory concentration (IC50) was determined as 380 nM in experiment [1] and 360 nM in experiment [3].
On to `Cc1cc(Nc2cc(N3CCOCC3)nc(Sc3ccc(NC(=O)C4CC4)cc3)n2)n[nH]1`, for which the IC50 stood at 390 nM in experiment [1] and 810 nM in experiment [2].
For the compound `Cc1cc(Nc2cc(N3CCCCC3)nc(Sc3ccc(NC(=O)C4CC4)cc3)n2)n[nH]1`, in experiment [2], the 50% inhibitory concentration (IC50) was 1740 nM.
Take `Cc1[nH]nc(Nc2cc(N3CCOCC3)nc(Sc3ccc(NC(=O)C4CCCCC4)cc3)n2)c1C`: the IC50 in experiment [1] and in experiment [3] was greater than 3000 nM each time.
For the compound `Cc1[nH]nc(Nc2cc(N3CCN(C)CC3)nc(Sc3ccc(NC(=O)C4CCCCC4)cc3)n2)c1C`, the IC50 in experiment [1] and in experiment [2] was greater than 3000 nM throughout.
In the case of `Cc1[nH]nc(Nc2cc(N3CCOCC3)nc(Nc3ccc(NC(=O)C4CC4)cc3)n2)c1C`, the concentration for half-maximal inhibition (IC50) in experiment [1] and in experiment [2] was greater than 3000 nM in each case.
As for `Cc1[nH]nc(Nc2cc(N3CCN(C)CC3)nc(Nc3ccc(NC(=O)C4CC4)cc3)n2)c1C`, the 50% inhibitory concentration (IC50) in experiment [1] and in experiment [2] was greater than 3000 nM in each case.
As for `Cc1cc(Nc2cc(N3CCCCC3)nc(Nc3ccc(NC(=O)C4CCCCC4)cc3)n2)n[nH]1`, the 50% inhibitory concentration (IC50) in experiment [2] is 1940 nM; in experiment [6] it was greater than 3000 nM.
Turning to `Cc1cc(Nc2cc(N3CCN(C)CC3)nc(Nc3ccc(NC(=O)C4CCCCC4)cc3)n2)n[nH]1`, the concentration for half-maximal inhibition (IC50) in experiment [1] is 910 nM; in experiment [2] it was 1750 nM.
Regarding `Cc1[nH]nc(Nc2cc(N3CCCCC3)nc(Nc3ccc(NC(=O)C4CCCCC4)cc3)n2)c1C`, the 50% inhibitory concentration (IC50) in experiment [1] and in experiment [3] was greater than 3000 nM in each case.
On to `Cc1[nH]nc(Nc2cc(N3CCN(C)CC3)nc(Nc3ccc(NC(=O)C4CCCCC4)cc3)n2)c1C`, for which, in experiment [3], the IC50 was greater than 3000 nM.
Turning to `Cc1cc(Nc2nc(Sc3ccc(NC(=O)C4CC4)cc3)nc(N3CCCCC3)n2)n[nH]1`, the IC50 in experiment [1] and in experiment [2] was greater than 3000 nM each time.
With `Cc1cc(Nc2nc(Sc3ccc(NC(=O)C4CC4)cc3)nc(N3CCOCC3)n2)n[nH]1`, the IC50 in experiment [4] turned out to be 700 nM; in experiment [2] it was 1450 nM.
`Cc1[nH]nc(Nc2nc(Sc3ccc(NC(=O)C4CC4)cc3)nc(N3CCCCC3)n2)c1C`: the half-inhibitory concentration (IC50) in experiment [2] was greater than 3000 nM.
Turning to `Cc1[nH]nc(Nc2nc(Sc3ccc(NC(=O)C4CC4)cc3)nc(N3CCOCC3)n2)c1C`, the IC50 in experiment [2] is greater than 3000 nM.
Still for that read-out and setting: under `Cc1[nH]nc(Nc2nc(Sc3ccc(NC(=O)C4CC4)cc3)nc(N3CCN(C)CC3)n2)c1C` stands greater than 3000 nM.
For `Cc1cc(Nc2nc(Sc3ccc(NC(=O)C4CCCCC4)cc3)nc(N3CCOCC3)n2)n[nH]1`, the 50% inhibitory concentration (IC50) in experiment [1] was greater than 3000 nM; in experiment [3] it was 1630 nM.
On to `Cc1[nH]nc(Nc2nc(Sc3ccc(NC(=O)C4CCCCC4)cc3)nc(N3CCCCC3)n2)c1C`, for which the IC50 in experiment [5] is greater than 3000 nM.
Still for that read-out and setting: the result for `Cc1[nH]nc(Nc2nc(Sc3ccc(NC(=O)C4CCCCC4)cc3)nc(N3CCN(C)CC3)n2)c1C` reads greater than 3000 nM.
In experiment [6], `Cc1cc(Nc2nc(Nc3ccc(NC(=O)C4CC4)cc3)nc(N3CCCCC3)n2)n[nH]1` registered an IC50 greater than 3000 nM.
With `Cc1cc(Nc2nc(Nc3ccc(NC(=O)C4CC4)cc3)nc(N3CCN(C)CC3)n2)n[nH]1`, the concentration for half-maximal inhibition (IC50) in experiment [1] and in experiment [2] was greater than 3000 nM throughout.
Consider `Cc1[nH]nc(Nc2nc(Nc3ccc(NC(=O)C4CC4)cc3)nc(N3CCCCC3)n2)c1C`, for which the IC50 in experiment [1] and in experiment [3] was greater than 3000 nM each time.
For `Cc1[nH]nc(Nc2nc(Nc3ccc(NC(=O)C4CC4)cc3)nc(N3CCOCC3)n2)c1C`, the 50% inhibitory concentration (IC50) in experiment [1] and in experiment [3] was greater than 3000 nM in each case.
Take `Cc1cc(Nc2nc(Nc3ccc(NC(=O)C4CCCCC4)cc3)nc(N3CCCCC3)n2)n[nH]1`: the IC50 in experiment [1] and in experiment [2] was greater than 3000 nM in each case.
As to `Cc1cc(Nc2nc(Nc3ccc(NC(=O)C4CCCCC4)cc3)nc(N3CCOCC3)n2)n[nH]1`, the IC50 in experiment [1] and in experiment [3] was greater than 3000 nM throughout.
Turning to `Cc1cc(Nc2nc(Nc3ccc(NC(=O)C4CCCCC4)cc3)nc(N3CCN(C)CC3)n2)n[nH]1`, in experiment [2], the half-maximal inhibitory concentration (IC50) is greater than 3000 nM.
As for `Cc1[nH]nc(Nc2nc(Nc3ccc(NC(=O)C4CCCCC4)cc3)nc(N3CCOCC3)n2)c1C`, in experiment [5], the IC50 is greater than 3000 nM.
Still for that read-out and setting: under `Cc1[nH]nc(Nc2nc(Nc3ccc(NC(=O)C4CCCCC4)cc3)nc(N3CCN(C)CC3)n2)c1C` stands greater than 3000 nM.
Regarding `CCN1CCN(c2cc(Nc3n[nH]c(C)c3C)nc(Sc3ccc(NC(=O)C4CC4)cc3)n2)CC1`, the IC50 in experiment [1] and in experiment [2] was greater than 3000 nM each time.
On to `Cc1[nH]nc(Nc2cc(N3CCCCC3)nc(Nc3ccc(NC(=O)C4CC4)cc3)n2)c1C`, for which the half-maximal inhibitory concentration (IC50) in experiment [5] was greater than 3000 nM.
`Cc1[nH]nc(Nc2cc(N3CCOCC3)nc(Nc3ccc(NC(=O)C4CCCCC4)cc3)n2)c1C`: the IC50 in experiment [1] and in experiment [2] was greater than 3000 nM throughout.
For `Cc1[nH]nc(Nc2nc(Sc3ccc(NC(=O)C4CCCCC4)cc3)nc(N3CCOCC3)n2)c1C`, the half-maximal inhibitory concentration (IC50) in experiment [3] is greater than 3000 nM.
As to `Cc1[nH]nc(Nc2nc(Nc3ccc(NC(=O)C4CCCCC4)cc3)nc(N3CCCCC3)n2)c1C`, the IC50 in experiment [5] is greater than 3000 nM.
On to `Cc1cc(Nc2nc(Sc3ccc(NC(=O)C4CCCCC4)cc3)nc(N3CCCCC3)n2)n[nH]1`, for which the concentration for half-maximal inhibition (IC50) in experiment [1] and in experiment [2] was greater than 3000 nM each time.
Turning to `Cc1cc(Nc2nc(Nc3ccc(NC(=O)C4CC4)cc3)nc(N3CCOCC3)n2)n[nH]1`, the IC50 in experiment [4] turned out to be 1060 nM; in experiment [2] it was 2640 nM.
On to `Cc1[nH]nc(Nc2nc(Nc3ccc(NC(=O)C4CC4)cc3)nc(N3CCN(C)CC3)n2)c1C`, for which the IC50 in experiment [1] and in experiment [3] was greater than 3000 nM in each case.
With `Cc1cc(Nc2cc(N3CCCCC3)nc(Sc3ccc(NC(=O)C4CCCCC4)cc3)n2)n[nH]1`, the IC50 in experiment [1] was found to be 1750 nM; in experiment [2] it was 5040 nM.
In the case of `Cc1[nH]nc(Nc2cc(N3CCCCC3)nc(Sc3ccc(NC(=O)C4CCCCC4)cc3)n2)c1C`, the IC50 in experiment [2] is greater than 3000 nM.
Regarding `Cc1cc(Nc2cc(N3CCOCC3)nc(Nc3ccc(NC(=O)C4CCCCC4)cc3)n2)n[nH]1`, the concentration for half-maximal inhibition (IC50) in experiment [1] came to 640 nM; in experiment [2], 1500 nM.
In the case of `Cc1cc(Nc2nc(Sc3ccc(NC(=O)C4CC4)cc3)nc(N3CCN(C)CC3)n2)n[nH]1`, the IC50 in experiment [1] is greater than 3000 nM; in experiment [2] it was 1140 nM.
